Test results reported in US10669258B2, “3-sulfonyl-5-aminopyridine-2,4-diol APJ agonists” (BRISTOL-MYERS SQUIBB COMPANY, priority 2016, dated 2020).
Read-outs that look alike come from different tables or passages of the source.

Molecular target: T1, human APJ receptor (Homo sapiens, UniProt P35414)
T1 construct: expressed in transfected cells; host or cells: HEK293
T1 sequence (P35414 1-380): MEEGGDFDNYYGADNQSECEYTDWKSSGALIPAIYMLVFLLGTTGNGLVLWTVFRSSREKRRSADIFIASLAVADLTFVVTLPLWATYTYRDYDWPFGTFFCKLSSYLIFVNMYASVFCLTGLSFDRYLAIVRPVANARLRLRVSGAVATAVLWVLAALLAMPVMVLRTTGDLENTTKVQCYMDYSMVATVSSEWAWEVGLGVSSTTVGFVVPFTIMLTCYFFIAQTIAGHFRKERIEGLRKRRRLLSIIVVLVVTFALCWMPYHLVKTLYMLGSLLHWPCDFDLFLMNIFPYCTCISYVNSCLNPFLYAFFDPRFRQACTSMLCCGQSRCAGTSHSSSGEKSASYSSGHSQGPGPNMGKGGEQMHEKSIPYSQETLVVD
Test: Intracellular cAMP accumulation assay (APJ hcAMP, HTRF)
Type: cell-based
Conditions: HEK293 cells stably expressing human APJ receptor, inhibition of forskolin-mediated cAMP production
Outline: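 HEK293 cells stably expressing the receptor (5,000/well) treated with compound plus […] and 2 μM forskolin for 30 min at room temperature; cAMP by HTRF against a cAMP standard curve. EC50 from variable-slope sigmoidal fit; Ymax as % of (Pyr1)apelin-13 inhibition.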

[1] = Table 2, read-out: hAPJ cAMP EC50 Potency range
[2] = Table 1, read-out: hAPJ cAMP EC50 Potency range
[3] = hAPJ cAMP EC50 Potency range, Table 1

SMILES	EC50 [2]	also measured
CCN(c1ccccc1)c1c(-c2ccn(C)n2)nc(O)c(C(=O)N2CCC(c3ncc(Cl)cc3F)C2)c1O (stereo not shown) [Example 204, (3-(5-chloro-3-fluoropyridin-2-yl)pyrrolidin-1-yl)(5-(ethyl(phenyl)amino)-2,4-dihydroxy-6-(1-methyl-1H-pyrazol-3-yl)pyridin-3-yl)methanone]		EC50 [1]: 0.01 to 10 nM
CCCCc1nc(O)c(S(=O)(=O)c2ccc(-c3ccccc3C(=O)NC)cc2)c(O)c1N(C)c1ccccc1F [Example 176, 4′-((6-butyl-5-((2-fluorophenyl)(methyl)a-mino)-2,4-dihydroxypyridin-3-yl)sulfonyl)-N-methyl-[1,1′-biphenyl]-2-carboxamide]	0.01 to 10 nM	
CCN(c1ccccc1)c1c(-c2ccn(C)n2)nc(O)c(S(=O)(=O)c2ccc(-c3cccnc3C)cc2)c1O [Example 058, 5-(ethyl(phenyl)amino)-6-(1-methyl-1H-pyrazol-3-yl)-3-((4-(2-methylpyridin-3-yl)phenyl)sulfonyl)pyridine-2,4-diol]	0.01 to 10 nM	
CCCCc1nc(O)c(S(=O)(=O)c2ccc(-c3ccncc3C)cc2)c(O)c1N(C)c1cccc(C#N)c1 [Example 113, 3-((2-butyl-4,6-dihydroxy-5-((4-(3-methylpyridin-4-yl)phenyl)sulfonyl)pyridin-3-yl)(methyl)amino)benzonitrile]	0.01 to 10 nM	
CCN(c1ccccc1)c1c(CC2CC2)nc(O)c(S(=O)(=O)c2ccc(-c3ccncc3C)cc2)c1O [Example 052, 6-(cyclopropylmethyl)-5-(ethyl(phenyl)amino)-3-((4-(3-methylpyridin-4-yl)phenyl)sulfonyl)pyridine-2,4-diol]	0.01 to 10 nM	
Cc1c(-c2ccc(S(=O)(=O)c3c(O)nc(-c4ccn(C)n4)c(N(c4ccccc4)C(C)C)c3O)cc2)ccnc1F [Example 164, 3-((4-(2-fluoro-3-methylpyridin-4-yl)phenyl)sulfonyl)-5-(isopropyl(phen-yl)amino)-6-(1-methyl-1H-pyrazol-3-yl)pyridine-2,4-diol]	0.01 to 10 nM	
CCCCc1nc(O)c(S(=O)(=O)c2ccc(-c3ccncc3C)cc2)c(O)c1N(C)c1cccc(C)c1 [Example 090, 6-butyl-5-(methyl(m-tolyl)amino)-3-((4-(3-methylpyridin-4-yl)phenyl)sulfonyl)pyridine-2,4-diol]	0.01 to 10 nM	
CCCCc1nc(O)c(C(=O)N2CC[C@@H](c3ccccc3)C2)c(O)c1N1CCCc2ccccc21 [Example 019, (S)-(6-butyl-5-(3,4-dihydroquinolin-1(2H)-yl)-2,4-dihydroxypyridin-3-yl)(3-phenylpyrrolidin-1-yl)methanone]		EC50 [3]: 10 to 100 nM
CCCCc1nc(O)c(S(=O)(=O)c2ccc(-c3ccnc(F)c3C)cc2)c(O)c1N(C)c1cccc(OC)c1 [Example 029, 6-butyl-3-((4-(2-fluoro-3-methylpyridin-4-yl)phenyl)sulfonyl)-5-((3-methoxyphenyl)(methyl)amino)pyridine-2,4-diol]	0.01 to 10 nM	
CCCCc1nc(O)c(S(=O)(=O)c2ccc(C3CC3)cc2)c(O)c1N(C)c1ccccc1 [Example 016, 6-butyl-3-((4-cyclopropylphenyl)sulfonyl)-5-(methyl(phenyl)amino)pyridine-2,4-diol]	0.01 to 10 nM	
CCN(c1ccccc1)c1c(-c2ccn(C)n2)nc(O)c(C(=O)N2CCC(c3ncc(F)cc3F)C2)c1O (stereo not shown) [Example 197, (3-(3,5-difluoropyridin-2-yl)pyrrolidin-1-yl)(5-(ethyl(phenyl)amino)-2,4-dihydroxy-6-(1-methyl-1H-pyrazol-3-yl)pyridin-3-yl)methanone]		EC50 (hAPJ cAMP EC50 Potency range, Table 2): 0.01 to 10 nM
CCCCc1nc(O)c(S(=O)(=O)c2ccc(-c3cccnc3C)cc2)c(O)c1N(C)c1ccc(OC)cc1 [Example 035, 6-butyl-5-((4-methoxyphenyl)(methyl)amino)-3-((4-(2-methylpyridin-3-yl)phenyl)sulfonyl)pyridine-2,4-diol]	10 to 100 nM	
CCN(c1ccccc1)c1c(-c2ccn(C)n2)nc(O)c(C(=O)N2CCC(c3ccc(Cl)cn3)C2)c1O (stereo not shown) [Example 200, (3-(5-chloropyridin-2-yl)pyrrolidin-1-yl)(5-(ethyl(phenyl)amino)-2,4-dihydroxy-6-(1-methyl-1H-pyrazol-3-yl)pyridin-3-yl)methanone]		EC50 [1]: 0.01 to 10 nM
CCCCc1nc(O)c(S(=O)(=O)c2ccc(-c3ccccc3C#N)cc2)c(O)c1N(CC)c1ccccc1 [Example 083, 4′-((6-butyl-5-(ethyl(phenyl)amino)-2,4-dihydroxypyridin-3-yl)sulfonyl)-[1,1′-biphenyl]-2-carbonitrile]	0.01 to 10 nM	
CCCCc1nc(O)c(S(=O)(=O)c2ccc(-c3ccc(F)nc3C)cc2)c(O)c1N1CCCc2ccccc21 [Example 021, 6-butyl-5-(3,4-dihydroquinolin-1(2H)-yl)-3-((4-(6-fluoro-2-methylpyridin-3-yl)phenyl)sulfonyl)pyridine-2,4-diol]	0.01 to 10 nM	
CCCCc1nc(O)c(S(=O)(=O)c2ccc(-c3ccccc3C(N)=O)cc2)c(O)c1N1CCCc2ccccc21 [Example 057, 4′-((6-butyl-5-(3,4-dihydroquinolin-1(2H)-yl)-2,4-dihydroxypyridin-3-yl)sulfonyl)-[1,1′-biphenyl]-2-carboxamide]	0.01 to 10 nM	
CCCCc1nc(O)c(S(=O)(=O)c2ccc(-n3cc(C)ccc3=O)cc2)c(O)c1N(C)c1cccc(C)c1 [Example 099, 1-(4-((6-butyl-2,4-dihydroxy-5-(methyl(m-tolyl)amino)pyridin-3-yl)sulfonyl)phenyl)-5-methylpyridin-2(1H)-one]	10 to 100 nM	
CCCCc1nc(O)c(S(=O)(=O)c2ccc(-c3ccnc(F)c3C)cc2)c(O)c1N1CCCc2ccccc21 [Example 028, 6-butyl-5-(3,4-dihydroquinolin-1(2H)-yl)-3-((4-(2-fluoro-3-methylpyridin-4-yl)phenyl)sulfonyl)pyridine-2,4-diol]	0.01 to 10 nM	
CCCCc1nc(O)c(C(=O)N2CCC(c3ccccc3F)C2)c(O)c1N(CC)c1ccccc1 (stereo not shown) [Example 075, (6-butyl-5-(ethyl(phenyl)amino)-2,4-dihydroxypyridin-3-yl)(3-(2-fluorophenyl)pyrrolidin-1-yl)methanone]		EC50 [3]: 0.01 to 10 nM
CCN(c1ccccc1)c1c(-c2cccc(C)c2)nc(O)c(S(=O)(=O)c2ccc(-c3ccccc3C(=O)NC)cc2)c1O [Example 145, 4′-((5-(ethyl(phenyl)amino)-2,4-dihydroxy-6-(m-tolyl)pyridin-3-yl)sulfonyl)-N-methyl-[1,1′-biphenyl]-2-carboxamide]	0.01 to 10 nM	
CCN(c1cccc(C#N)c1)c1c(-c2ccn(C)n2)nc(O)c(S(=O)(=O)c2ccc(-c3ccncc3C)cc2)c1O [Example 212, 3-((4,6-dihydroxy-2-(1-methyl-1H-pyrazol-3-yl)-5-((4-(3-methylpyridin-4-yl)phenyl)sulfonyl)pyri-din-3-yl)(ethyl)amino)benzonitrile]	0.01 to 10 nM	
CC(C)N(c1ccccc1)c1c(-c2ccn(C)n2)nc(O)c(S(=O)(=O)c2ccc(-c3ccccc3C(=O)NC3CC3)cc2)c1O [Example 162, N-cyclopropyl-4′-((2,4-dihydroxy-5-(isopropyl(phen-yl)amino)-6-(1-methyl-1H-pyrazol-3-yl)pyridin-3-y)sulfonyl)-[1,1′-biphenyl]-2-carboxamide]	0.01 to 10 nM	
CCCCc1nc(O)c(S(=O)(=O)c2ccc(-c3cccnc3C)cc2)c(O)c1N(CC)c1cc(C)cc(C)c1 [Example 183, 6-butyl-5-((3,5-di-methylphenyl)(ethyl)a-mino)-3-((4-(2-methylpyridin-3-yl)phenyl)sulfonyl)pyri-dine-2,4-diol]	10 to 100 nM	
CCCCc1nc(O)c(S(=O)(=O)c2ccc(-c3ccccc3C(N)=O)cc2)c(O)c1N(CC)c1ccccc1 [Example 085, 4′-((6-butyl-5-(ethyl(phenyl)amino)-2,4-dihydroxypyridin-3-yl)sulfonyl)-[1,1′-biphenyl]-2-carboxamide]	0.01 to 10 nM	
CCCCc1nc(O)c(S(=O)(=O)c2ccc(Br)cc2)c(O)c1N(C)c1ccccc1 [Example 010, 3-((4-bromophenyl)sulfonyl)-6-butyl-5-(methyl(phenyl)amino)pyridine-2,4-diol]	10 to 100 nM	
CCCCc1nc(O)c(S(=O)(=O)c2ccc(-c3ccc(F)nc3C)cc2)c(O)c1N(CC)c1cc(C)cc(C)c1 [Example 135, 6-butyl-5-((3,5-dimethylphenyl)(ethyl)amino)-3-((4-(6-fluoro-2-methylpyridin-3-yl)phenyl)sulfonyl)pyridine-2,4-diol]	0.01 to 10 nM	
CCCCc1nc(O)c(S(=O)(=O)c2ccc(C3CC3)cc2)c(O)c1N(C)c1ccc(C)cc1 [Example 100, 6-butyl-3-((4-cyclopropylphenyl)sulfonyl)-5-(methyl(p-tolyl)amino)pyridine-2,4-diol]	10 to 100 nM	
CCN(c1ccccc1)c1c(CC2CC2)nc(O)c(C(=O)N2CCC(c3ncc(F)cc3F)C2)c1O (stereo not shown) [Example 053, (6-(cyclopropylmethyl)-5-(ethyl(phenyl)amino)-2,4-dihydroxypyridin-3-yl)(3-(3,5-difluoropyridin-2-yl)pyrrolidin-1-yl)methanone]		EC50 [3]: 10 to 100 nM
